We go through 15 compounds from ChEMBL document CHEMBL1806479, “Structure-activity study on a series of α-glutamic acid scaffold based compounds as new ADAMTS inhibitors” (Bioorg Med Chem Lett, 2011).

The target in test [1] is T1, A disintegrin and metalloproteinase with thrombospondin motifs 4 (Homo sapiens) (UniProt O75173).
T1 sequence (whole entry): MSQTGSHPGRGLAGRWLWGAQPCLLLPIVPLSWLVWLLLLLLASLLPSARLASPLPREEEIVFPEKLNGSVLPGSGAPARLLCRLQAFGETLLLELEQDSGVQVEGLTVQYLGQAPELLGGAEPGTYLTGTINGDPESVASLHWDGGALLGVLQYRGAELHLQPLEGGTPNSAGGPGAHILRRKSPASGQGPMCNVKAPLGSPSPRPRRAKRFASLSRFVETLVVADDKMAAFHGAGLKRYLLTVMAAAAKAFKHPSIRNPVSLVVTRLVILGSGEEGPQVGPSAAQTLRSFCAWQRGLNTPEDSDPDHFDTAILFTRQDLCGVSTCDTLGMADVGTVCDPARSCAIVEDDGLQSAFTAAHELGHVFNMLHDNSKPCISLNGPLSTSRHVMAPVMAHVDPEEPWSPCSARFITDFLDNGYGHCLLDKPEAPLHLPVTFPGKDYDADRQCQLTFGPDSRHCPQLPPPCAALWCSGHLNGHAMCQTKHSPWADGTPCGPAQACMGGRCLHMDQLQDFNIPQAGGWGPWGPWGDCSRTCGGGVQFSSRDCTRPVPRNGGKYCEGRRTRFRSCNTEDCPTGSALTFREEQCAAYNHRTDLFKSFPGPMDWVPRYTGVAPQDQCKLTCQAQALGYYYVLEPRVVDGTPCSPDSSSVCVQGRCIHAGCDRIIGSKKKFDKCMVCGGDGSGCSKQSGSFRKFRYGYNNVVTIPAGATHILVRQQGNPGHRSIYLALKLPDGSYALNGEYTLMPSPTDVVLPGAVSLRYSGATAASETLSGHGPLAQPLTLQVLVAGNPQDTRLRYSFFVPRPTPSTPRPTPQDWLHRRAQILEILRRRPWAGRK
Briefly: Inhibition of human recombinant ADAMTS4 at 10 uM by fluorimetric assay.

In test [2] the target is T1, A disintegrin and metalloproteinase with thrombospondin motifs 4 (Homo sapiens). Briefly: Inhibition of human recombinant ADAMTS4 at 1 uM by fluorimetric assay.
Test [3] deals with T2, A disintegrin and metalloproteinase with thrombospondin motifs 5 (Homo sapiens, UniProt Q9UNA0).
T2 sequence (Q9UNA0 whole entry): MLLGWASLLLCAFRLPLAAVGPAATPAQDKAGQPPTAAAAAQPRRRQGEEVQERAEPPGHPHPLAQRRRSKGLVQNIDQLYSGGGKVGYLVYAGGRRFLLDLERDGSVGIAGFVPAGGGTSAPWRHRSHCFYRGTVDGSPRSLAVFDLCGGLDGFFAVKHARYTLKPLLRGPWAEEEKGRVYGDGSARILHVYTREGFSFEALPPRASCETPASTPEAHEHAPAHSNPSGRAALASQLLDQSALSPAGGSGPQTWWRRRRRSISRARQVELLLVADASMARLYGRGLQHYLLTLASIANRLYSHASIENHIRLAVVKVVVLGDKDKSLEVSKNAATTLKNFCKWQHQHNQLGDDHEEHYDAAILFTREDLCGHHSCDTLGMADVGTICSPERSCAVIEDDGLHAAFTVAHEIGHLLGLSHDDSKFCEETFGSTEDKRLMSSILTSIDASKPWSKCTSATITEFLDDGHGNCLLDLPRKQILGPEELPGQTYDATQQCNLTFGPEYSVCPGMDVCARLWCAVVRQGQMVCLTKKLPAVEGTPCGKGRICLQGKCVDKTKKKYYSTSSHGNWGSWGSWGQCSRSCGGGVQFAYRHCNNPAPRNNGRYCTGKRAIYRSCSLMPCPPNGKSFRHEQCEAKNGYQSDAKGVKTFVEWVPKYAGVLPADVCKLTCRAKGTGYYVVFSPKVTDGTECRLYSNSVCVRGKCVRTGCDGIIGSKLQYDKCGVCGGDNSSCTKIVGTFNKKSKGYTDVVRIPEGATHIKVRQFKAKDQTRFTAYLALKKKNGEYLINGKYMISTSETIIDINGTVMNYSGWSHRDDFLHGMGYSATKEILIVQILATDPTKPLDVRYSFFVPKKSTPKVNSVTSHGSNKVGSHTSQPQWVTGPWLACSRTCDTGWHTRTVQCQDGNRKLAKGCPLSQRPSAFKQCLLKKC
Put plainly: Inhibition of human recombinant ADAMTS5 by fluorimetric assay.

The target of test [4] is T1, A disintegrin and metalloproteinase with thrombospondin motifs 4 (Homo sapiens). Put plainly: (§1) Inhibition of human recombinant ADAMTS4 by fluorimetric assay.
Test [5] has as its target T3, A disintegrin and metalloproteinase with thrombospondin motifs 4 (Homo sapiens, UniProt O75173).
T3 sequence (O75173 whole entry): T1 sequence (whole entry)
The test is described as §1.

The nature of test [6]: Inhibition of aggrecanase.

Consider `CC(C)(Cc1nnc([C@H](CCC(=O)O)NC(=O)c2ccc(-c3ccccc3)cc2)o1)c1ccccc1`, for which the inhibition in test [1] was 45%; in test [2], 19%.
For `O=C(O)CC[C@H](NC(=O)c1ccc(-c2ccccc2)cc1)c1nnc(CCc2ccc(O)cc2)o1` the same measures were 51% and 22%.
Take `COc1cc(Cc2nnc([C@H](CCC(=O)O)NC(=O)c3ccc(-c4ccccc4)cc3)o2)cc(OC)c1OC`: the results for the IC50 in test [3] and in test [5] were 0.8 µM and 1.2 µM, respectively. Also, the inhibition entry was “Dose-dependent effect” in test [4], 86% in test [1] and 47% in test [2].
For the compound `O=C(O)CC[C@H](NC(=O)c1ccc(-c2ccncc2)cc1)c1nnc(CCc2ccccc2)o1`, the inhibition is 18% in test [1] and 8% in test [2].
Take `O=C(O)CC[C@H](NC(=O)c1ccc(-c2ccccc2)cc1)c1nnc(C2(c3ccccc3)CC2)o1`: the inhibition is 20% in test [1] and 5% in test [2].
`COc1ccc(CCc2nnc([C@H](CCC(=O)O)NC(=O)c3ccc(-c4ccccc4)cc3)o2)cc1`: the values for the concentration for half-maximal inhibition (IC50) in test [3] and in test [5] were 24.3 µM and 4.9 µM, respectively. The inhibition result in test [4] was “Dose-dependent effect”; in test [1], 66%; in test [2], 35%.
The corresponding values for `COc1cc(CCc2nnc([C@H](CCC(=O)O)NC(=O)c3ccc(-c4ccccc4)cc3)o2)cc(OC)c1OC` are 4.3 µM, 3.3 µM, “Dose-dependent effect”, 74% and 35%.
For `O=C(O)CC[C@H](NC(=O)c1ccc(-c2ccccc2)cc1)c1nnc(Cc2ccccc2)o1`, the figures for the inhibition in test [1] and in test [2] were 26% and 17%, respectively.
On to `O=C(O)CC[C@H](NC(=O)c1ccc(-c2ccccc2)cc1)c1nnc(CCc2ccccc2)o1`, for which the 50% inhibitory concentration (IC50) came out at 57.3 µM in test [3] and 9.7 µM in test [5]. Moreover, the results for the inhibition result in test [4], in test [1] and in test [2] were “Dose-dependent effect”, 59% and 30%, respectively.
Take `CC(C)(Cc1ccccc1)c1nnc([C@H](CCC(=O)O)NC(=O)c2ccc(-c3ccccc3)cc2)o1`: the results for the inhibition in test [1] and in test [2] were 47% and 23%, respectively.
For `O=C(O)CC[C@H](NC(=O)c1ccc(-c2cccnc2)cc1)c1nnc(CCc2ccccc2)o1`, the inhibition stood at 39% in test [1] and 12% in test [2].
Consider `Cc1ccc(CCc2nnc([C@H](CCC(=O)O)NC(=O)c3ccc(-c4ccccc4)cc3)o2)cc1`, for which the values for the inhibition in test [1] and in test [2] were 56% and 27%, respectively.
As to `CC(C)(c1ccccc1)c1nnc([C@H](CCC(=O)O)NC(=O)c2ccc(-c3ccccc3)cc2)o1`, the inhibition in test [1] was 5%; in test [2], -5%.
As to `O=C(C[C@@H](Cc1ccc(-c2ccc3c(c2)OCO3)cc1)C(=O)N[C@@H]1c2ccccc2C[C@@H]1O)NO`, in test [6], the half-inhibitory concentration (IC50) is 0.0015 µM.
As for `COc1ccc(Cc2nnc([C@H](CCC(=O)O)NC(=O)c3ccc(-c4ccccc4)cc3)o2)cc1`, the inhibition was 21% in test [1] and 5% in test [2].

For orientation: inhibition means the relative decrease from the control value, in per cent. By IC50 is commonly meant the concentration at which inhibition is half-maximal.
